# In PubChem BioAssay (NCI):
#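 Cells were grown in 96-well plates and exposed to each compound for 48 hours at five concentrations; endpoints were interpolated linearly between bracketing concentrations, or set to the highest concentration if not reached. The concentration for 50% growth inhibition is given as GI50. At the TGI there is no net growth.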
# What was measured:
# Assay in all cases: NCI tumour cell line growth inhibition, 48 h
# SR leukemia = system: SR leukemia
# XF 498 CNS = system: XF 498 CNS
# DMS 114 small cell lung = system: DMS 114 small cell lung
# SNB-78 CNS = system: SNB-78 CNS
# RXF-631 renal = system: RXF-631 renal
# MDA-MB-435 = system: MDA-MB-435
# T-47D breast = system: T-47D breast
# MDA-MB-231 breast = system: MDA-MB-231 breast
# DU-145 prostate = system: DU-145 prostate
# RPMI-8226 leukemia = system: RPMI-8226 leukemia
# PC-3 prostate = system: PC-3 prostate
# SN12K1 renal = system: SN12K1 renal
# P388 leukemia = system: P388 leukemia
SMILES,TGI (SR leukemia),TGI (XF 498 CNS),TGI (DMS 114 small cell lung),TGI (SNB-78 CNS),TGI (RXF-631 renal),TGI (MDA-MB-435),TGI (T-47D breast),TGI (MDA-MB-231 breast),TGI (DU-145 prostate),TGI (RPMI-8226 leukemia),TGI (PC-3 prostate),TGI (SN12K1 renal),TGI (P388 leukemia),also measured
Cc1cc(NS(=O)(=O)c2ccc(Nc3c4ccccc4nc4c(C(=O)NCCN(C)C)ccc(Cl)c34)cc2)no1,10.8 µM,26.7 µM,13.9 µM,44 µM,20.9 µM,–,–,–,–,–,–,–,–,–
COC(=O)C(C)N1C(=O)c2ccccc2I1OC(C)=O (stereo unspecified),49.2 µM,–,–,–,–,> 100 µM,82.6 µM,> 100 µM,> 100 µM,37.6 µM,> 100 µM,–,–,GI50 (SR leukemia): 19.7 µM; GI50 (MDA-MB-435): > 100 µM; GI50 (T-47D breast): 21 µM; GI50 (MDA-MB-231 breast): 25.4 µM; GI50 (DU-145 prostate): > 100 µM; GI50 (RPMI-8226 leukemia): 15.3 µM; GI50 (PC-3 prostate): > 100 µM
COc1cc(N=Nc2cccc(S(=O)(=O)O)c2)c(C)cc1N=Nc1ccc(/C=C/c2ccc(N=[N+]([O-])c3ccc(/C=C/c4ccc(N=Nc5cc(C)c(N=Nc6cccc(S(=O)(=O)O)c6)cc5OC)cc4)c(S(=O)(=O)O)c3)cc2S(=O)(=O)O)cc1,–,> 100 µM,> 100 µM,–,–,–,–,–,–,–,–,> 100 µM,> 100 µM,–
O=CNc1cccc2c3c([nH]c12)CCCCCC3,–,> 100 µM,> 100 µM,> 100 µM,–,–,–,–,–,–,–,> 100 µM,> 100 µM,–
CCOC(=O)C1C(c2cc(OC)c(O)c(OC)c2)c2cc3c(cc2OC1(C)O)OCO3 (stereo unspecified),–,> 100 µM,–,> 100 µM,> 100 µM,–,–,–,–,> 100 µM,–,–,–,–
CC(C)(C)OC(=O)NC(Cc1ccccc1)C(=O)N[C@H]1c2ccsc2/C(=N/O)[C@H]1O (stereo partly specified),> 100 µM,–,–,–,–,> 100 µM,> 100 µM,> 100 µM,> 100 µM,–,> 100 µM,–,–,–
C=C1C(=O)O[C@H]2C1[C@H](OC(=O)/C(C)=C\COC(C)=O)C[C@]1(CO1)[C@@H]1[C@H](O)[C@H]3O[C@@]3(C)[C@@H]12 (stereo partly specified),–,38.4 µM,42.6 µM,> 73.5 µM,–,–,–,–,–,46.5 µM,–,> 55.9 µM,18.4 µM,–
COc1ccc(C(=O)Cc2cc(OC)ccc2OC)cc1,> 100 µM,–,> 100 µM,> 100 µM,> 100 µM,–,–,–,–,> 100 µM,–,–,–,–
CC(C)=CCN(N=O)c1ncnc2nc[nH]c12,> 100 µM,–,–,–,–,> 100 µM,> 100 µM,> 100 µM,> 100 µM,> 100 µM,> 100 µM,–,–,–
